# Assay results from US20240317746A1, “CRYSTALLINE FORMS OF AN AZETIDINE PARP1 INHIBITOR” (XinThera, Inc., priority 2023, published 2024).
# Several values for one entry are separate records, joined by “and”; a condition that tells them apart may be missing. Equal values may be shown once. Entries after “also recorded” stand apart in the source; their conditions may differ.
# Legend:
# [1] = Polymorph screening (slurry conversion, cooling, evaporation, anti-solvent, cyclic heating-cooling, salt break); conditions: about 20 mg in 1 mL
# Procedure: Form I was obtained from most polymorph screening experiments. […]
# Cyclic heating-cooling experiments were carried out in Crystal 16 Parallel Crystallizer. About 20 mg of Compound 1 (starting material) was added into 1 mL solvents, and a heating-cooling program was performed: • 1. Equilibrated first at 20° C., and heated to 75 or 100° C. at 0.2° C./min (the elevated temperature is set according to boiling point of solvent). • 2. Held at 75 or 100° C. for 1 h. • 3. Cooled to 20° C. at 0.2° C./min and hold for 1 h. • 4. Repeated the above procedures once.
# Turbidimeter from Crystal 16 recorded if solids were completely dissolved during heating. Form I was obtained in most solvent systems. […]
# [2] = Preliminary solubility test: estimated solubility at RT by visual observation; format: physicochemical
# Procedure: The solubility of Compound 1 (starting material) was estimated at RT in 18 single solvents and 6 solvent mixtures by visual observation. Approximately 5 mg solids were weighed into 8 mL glass vial, and then solvent was added stepwise until solids were dissolved completely or a total of solvent volume reached 5 mL. […] The solubility was estimated and for reference only.
# [3] = Solubility in bio-relevant media (SGF, FaSSIF, FeSSIF) and water; format: physicochemical; conditions: for XRPD 0.5 h / XRPD 2 h / XRPD 24 h: filter cake; for Solubility 0.5 h / Solubility 2 h / Solubility 24 h: average n=2
# Procedure: At 0.5, 2 and 24 hours, about 0.6 mL of each suspension was filtered, the filtrate was analyzed by HPLC and pH meter, and the filter cake was analyzed by XRPD. The samples were prepared in duplicate (n=2) per condition. Average value (n=2) was presented.
# HPLC analysis was performed with an Agilent HPLC 1260 series instrument.
# [4] = pH solubility profile of Form I in pH buffers; format: physicochemical; conditions: for XRPD 4 h / XRPD 24 h: wet cake
# Procedure: Different pH buffers (pH 1.0, 3.0, 5.0, 6.8 and 9.0) were prepared by method in Table 18. Appropriate amount of Form I was added into 1.4 mL of different buffers (pH=1.0, 3.0, 5.0, 6.8 and 9.0) to make suspensions. The suspensions were kept shaking with a speed of 1000 rpm at 25° C. for 4 and 24 hours. At each point, the suspensions were centrifuged, and the supernatant was inspected by UPLC/pH, and the wet cakes were analyzed by XRPD. Duplicate samples were prepared.
# [5] = Solid-state stability at 60° C. (capped) and 40° C./75% RH (open); format: physicochemical
# Procedure: (capped) and 40° C./75% RH (open) for 7 days. Duplicate samples were prepared at each condition. The stability sample was dissolved in diluent to prepare solution at ˜1 mg/mL for HPLC purity analysis. Solid samples were analyzed by XRPD to check the crystal form. […] (capped) and 40° C./75% RH (open) for at least 7 days.
# [6] = DVS test (dynamic vapor sorption, hygroscopicity); format: physicochemical; conditions: for hygroscopicity (in words): DVS
# Procedure: All the three target forms remained no change after DVS test.
# Dynamic Vapor Sorption (DVS) was used to study hygroscopicity on Model Q5000 SA (TA Instruments, New Castle, DE). A sample (1-10 mg) was placed in an aluminum pan and loaded on the sample side of the twin pan balance. The water sorption and desorption were studied as a function of relative humidity (RH) at 25° C. in 10% RH increments from 0% RH to 90% RH and then back to 0%. […] Data analysis was performed using Universal Analysis 2000 Version 4.7A (TA Instruments, New Castle, DE).
# [7] = Mechanical stability of Form I (manual grinding); format: physicochemical; conditions: ground by pestle and mortar for about 1 minute and 5 minutes
# Procedure: Appropriate amount of Form I was manually ground by pestle and mortar for about 1 minute and 5 minutes, respectively. The ground samples were analyzed by XRPD.
# [8] = Stability relationship study (slurry turnover of Form II); format: physicochemical
# Procedure: Form II was prepared via heating starting material to 220° C. in DSC pans. Then, about 15 mg of Form II was stirred in 0.5 mL of selected solvent at desired temperatures for 2 and 5 days. Solid samples were collected by filtration and characterized by XRPD.
# [9] = FaSSIF, initial pH 6.45, 37° C.
# [10] = FaSSIF, initial pH 6.45, filtrate
# [11] = FeSSIF, initial pH 4.99, 37° C.
# [12] = FeSSIF, initial pH 4.99, filtrate
# [13] = Water, initial pH 5.41, filtrate
# [14] = aqueous buffer, thermodynamic from solid, pH 3.0 buffer (25 mM citrate), initial pH 3.01, solid loading 5 mg/mL, 25° C.
# [15] = aqueous buffer, thermodynamic from solid, pH 5.0 buffer (25 mM citrate), initial pH 4.95, solid loading 5 mg/mL, 25° C.
# [16] = aqueous buffer, thermodynamic from solid, pH 6.8 buffer (25 mM phosphate), initial pH 6.78, solid loading 5 mg/mL, 25° C.
# [17] = aqueous buffer, thermodynamic from solid, pH 9.0 buffer (25 mM DEA), initial pH 9.01, solid loading 5 mg/mL, 25° C.
# [18] = pH 1.0 buffer, initial pH 1.01, solid loading 60 mg/mL
# [19] = pH 3.0 buffer, initial pH 3.01, solid loading 5 mg/mL
# [20] = pH 5.0 buffer, initial pH 4.95, solid loading 5 mg/mL
# [21] = pH 6.8 buffer, initial pH 6.78, solid loading 5 mg/mL
# [22] = pH 9.0 buffer, initial pH 9.01, solid loading 5 mg/mL
# [23] = simulated gastric fluid, thermodynamic from solid, pH 1.0 buffer (0.1N HCl), initial pH 1.01, solid loading 60 mg/mL, 25° C.
smiles,measurement,setting,value
"C[C@@H]1[C@@H](Oc2ccc(C(=O)NC3CC3)nc2)CN1Cc1cnc2cc(Cl)c(=O)[nH]c2c1 [Compound 1, 5-(((2R,3S)-1-((7-chloro-6-oxo-5,6-dihydro-1,5-naphthyridin-3-yl)methyl)-2-methylazetidin-3-yl)oxy)-N-cyclopropylpicolinamide]",Hot Dissolution,"[1]; 2-MeTHF, 75° C.",Yes
same,Hot Dissolution,"[1]; ACN/Water (9/1), 75° C.",No
same,Hot Dissolution,"[1]; DMAc/Toluene (1/2), 100° C.",Yes
same,Hot Dissolution,"[1]; EtOH, 75° C.",Yes
same,Hot Dissolution,"[1]; MEK, 75° C.",No
same,Hot Dissolution,"[1]; MIBK, 100° C.",No
same,Hot Dissolution,"[1]; n-Butanol/Anisole (1/1), 100° C.",Yes
same,solubility,"[2]; DCM/MeOH (1/1), organic solvent or mixture, thermodynamic from solid, DCM/MeOH (1/1), read-out: Solubility",5000 to 20000 µg/mL
same,solubility,"[2]; DCM/MeOH (4/1), listed as Compound 1 (starting material)",50~100 mg/mL
same,solubility,"[2]; DMSO, DMF, DMAc (each), organic solvent or mixture, thermodynamic from solid, DMSO, DMF, DMAc, read-out: Solubility",20000 to 50000 µg/mL
same,solubility,"[2]; organic solvent or mixture, thermodynamic from solid, Acetone/Water (9/1), ACN/Water (9/1), MeOH/Water (9/1), Acetone/EtOH (1/1), THF, MeOH, read-out: Solubility",1000 to 5000 µg/mL
same,solubility,"[2]; water, thermodynamic from solid, EtOH, IPA, Acetone, EtOAc, ACN, Water, DCM, 2-MeTHF, Toluene, MTBE, MEK, Heptane, read-out: Solubility",< 1000 µg/mL
"C[C@@H]1[C@@H](Oc2ccc(C(=O)NC3CC3)nc2)CN1Cc1cnc2cc(Cl)c(=O)[nH]c2c1 [Freebase Form I, 5-(((2R,3S)-1-((7-chloro-6-oxo-5,6-dihydro-1,5-naphthyridin-3-yl)methyl)-2-methylazetidin-3-yl)oxy)-N-cyclopropylpicolinamide]",XRPD 0.5 h,[3]; FaSSIF,Unchanged
same,XRPD 2 h,[3]; FaSSIF,Unchanged
same,XRPD 24 h,[3]; FaSSIF,Unchanged
same,Solubility 0.5 h,[3]; [9],13 µg/mL
same,Solubility 2 h,[3]; [9],15 µg/mL
same,Solubility 24 h,[3]; [9],15 µg/mL
same,pH 0.5 h,[3]; [10],6.47
same,pH 2 h,[3]; [10],6.39
same,pH 24 h,[3]; [10],6.44
same,XRPD 0.5 h,[3]; FeSSIF,Unchanged
same,XRPD 2 h,[3]; FeSSIF,Unchanged
same,XRPD 24 h,[3]; FeSSIF,Unchanged
same,Solubility 0.5 h,[3]; [11],82 µg/mL
same,Solubility 2 h,[3]; [11],83 µg/mL
same,Solubility 24 h,[3]; [11],80 µg/mL
same,pH 0.5 h,[3]; [12],5.01
same,pH 2 h,[3]; [12],4.98
same,pH 24 h,[3]; [12],4.82
same,"XRPD 0.5 h, 2 h, 24 h",[3]; SGF,Clear
same,solubility,"[3]; SGF, 37 °C, pH 1.23, simulated gastric fluid, thermodynamic from solid, SGF, 37° C., read-out: solubility in SGF",> 5000 µg/mL
same,"Solubility 0.5 h, 2 h, 24 h","[3]; SGF, initial pH 1.23, 37° C.",>5000 µg/mL
same,pH 0.5 h,"[3]; SGF, initial pH 1.23, filtrate",1.33
same,pH 2 h,"[3]; SGF, initial pH 1.23, filtrate",1.20
same,pH 24 h,"[3]; SGF, initial pH 1.23, filtrate",1.28
same,XRPD 0.5 h,[3]; Water,Unchanged
same,XRPD 2 h,[3]; Water,Unchanged
same,XRPD 24 h,[3]; Water,Unchanged
same,Solubility 0.5 h,"[3]; Water, initial pH 5.41, 37° C.",11 µg/mL
same,Solubility 2 h,"[3]; Water, initial pH 5.41, 37° C.",11 µg/mL
same,Solubility 24 h,"[3]; Water, initial pH 5.41, 37° C.",10 µg/mL
same,pH 0.5 h,[3]; [13],5.93
same,pH 2 h,[3]; [13],6.54
same,pH 24 h,[3]; [13],7.54
same,crystal form after solubility test,[3]; XRPD of filter cake,remained unchanged
same,solubility in the other media (in words),"[3]; media other than SGF (FaSSIF, FeSSIF, water), 37° C.",low solubility
same,solubility at 4 h,[4]; [14],2460 µg/mL
same,solubility at 24 h,[4]; [14],784 µg/mL
same,solubility at 4 h,[4]; [15],83 µg/mL
same,solubility at 24 h,[4]; [15],84 µg/mL
same,solubility at 4 h,[4]; [16],8 µg/mL
same,solubility at 24 h,[4]; [16],8 µg/mL
same,solubility at 4 h,[4]; [17],14 µg/mL
same,solubility at 24 h,[4]; [17],14 µg/mL
same,solubility,"[4]; pH 1, simulated gastric fluid, thermodynamic from solid, 0.1 N HCl, 25° C., read-out: solubility (highest)",> 40000 µg/mL
same,pH 4 h,[4]; [18],2.48
same,pH 24 h,[4]; [18],2.38
same,XRPD 4 h,[4]; pH 1.0 buffer,Form I
same,XRPD 24 h,[4]; pH 1.0 buffer,Form I
same,form change of the solid,[4]; pH 3 buffer at 24 h,converted into Citrate Form I
same,pH 4 h,[4]; [19],3.30
same,pH 24 h,[4]; [19],3.45
same,XRPD 4 h,[4]; pH 3.0 buffer,Form I
same,XRPD 24 h,[4]; pH 3.0 buffer,Citrate Form I
same,pH 4 h,[4]; [20],4.88
same,pH 24 h,[4]; [20],4.90
same,XRPD 4 h,[4]; pH 5.0 buffer,Form I
same,XRPD 24 h,[4]; pH 5.0 buffer,Form I
same,solubility (in words),"[4]; pH 6.8 and 9 buffers, 25° C.",low
same,pH 4 h,[4]; [21],6.75
same,pH 24 h,[4]; [21],6.79
same,XRPD 4 h,[4]; pH 6.8 buffer,Form I
same,XRPD 24 h,[4]; pH 6.8 buffer,Form I
same,pH 4 h,[4]; [22],9.16
same,pH 24 h,[4]; [22],9.15
same,XRPD 4 h,[4]; pH 9.0 buffer,Form I
same,XRPD 24 h,[4]; pH 9.0 buffer,Form I
same,solubility at 4 h,[4]; [23],> 44400 µg/mL
same,solubility at 24 h,[4]; [23],> 44500 µg/mL
same,form change of the solid,[4]; the other conditions (other buffers and time points),remained unchanged
same,XRPD - 7 d,"[5]; 40° C./75% RH (open), 7 days",Unchanged
same,physical and chemical stability,"[5]; 60° C. (capped) and 40° C./75% RH (open), 7 days",physically and chemically stable
same,XRPD - 7 d,"[5]; 60° C. (capped), 7 days",Unchanged
same,Initial Purity,"[5]; before storage, HPLC",99.16 area %
same,hygroscopicity (in words),[6],slightly hygroscopic
same,hygroscopicity (in words),[6]; listed as Form I,slightly hygroscopic
same,crystal form after DVS test,[6]; XRPD after DVS,remained unchanged
same,water uptake,[6]; at 80% RH,0.5%
same,water uptake,"[6]; at 80% RH, listed as Form I",0.5% and < 1%
same,water uptake,[6]; at 90% RH,0.6%
same,water uptake,"[6]; at 90% RH, listed as Form I",0.6%
same,crystal form after grinding (XRPD),[7],remained unchanged with little crystallinity decrease
same,relative stability of the crystal form,[8]; anhydrates Form I vs Form II,more stable anhydrate at RT to 80 °C; also recorded: Stable below 80 °C
same,solubility,"[2]; DCM/MeOH (4/1, v/v), organic solvent or mixture, thermodynamic from solid, DCM/MeOH (4/1), read-out: Solubility",> 50000 µg/mL
same,solubility,"[2]; organic solvent or mixture, thermodynamic from solid, most solvent systems, read-out: Solubility",< 5000 µg/mL
"C[C@@H]1[C@@H](Oc2ccc(C(=O)NC3CC3)nc2)CN1Cc1cnc2cc(Cl)c(=O)[nH]c2c1 [Freebase Form II, 5-(((2R,3S)-1-((7-chloro-6-oxo-5,6-dihydro-1,5-naphthyridin-3-yl)methyl)-2-methylazetidin-3-yl)oxy)-N-cyclopropylpicolinamide]",Slurry turnover output (XRPD) Day 2,"[8]; ACN, 80° C.",Form I + II
same,Slurry turnover output (XRPD) Day 5,"[8]; ACN, 80° C.",Form I
same,Slurry turnover output (XRPD) Day 2,"[8]; Acetone, 50° C.",Form I
same,Slurry turnover output (XRPD) Day 2,"[8]; Acetone, RT",Form I
same,form after slurry in selected solvents (XRPD),[8]; stirred at desired temperatures (RT to 80° C.) for 2 and 5 days,converted to Form I at all conditions
